# In paper PMC4052532, “Biodistribution and SPECT Imaging Study of ^99mTc Labeling NGR Peptide in Nude Mice Bearing Human HepG2 Hepatoma” (BioMed Research International, 2014):
# Where two headings read alike, the source gives them in different places. Where a SMILES comes first, the peptide text is derived from it. Bridges are numbered along the chain shown (N, C = ends).
# Key:
# Biodistribution studies = type: in vivo; conditions: female, BALB/c nude, mouse, total radioactivity; for tissue uptake at 1 h / tissue uptake at 4 h / tissue uptake at 8 h / tissue uptake at 12 h: n = 5, mean ± SD; for tissue uptake at 4 h: 4 h postinjection; for tissue uptake at 8 h: 8 h postinjection; for tissue uptake at 12 h: 12 h postinjection
# Protocol: HepG2 cells were grown in high glucose DMEM culture medium. All cell lines were cultured in medium supplemented with 10% (v/v) fetal bovine serum (Gibco, USA), 1% mycillin, and 1% Glutamine (Beyotime, China) at 37°C in a humidified atmosphere with 5% CO2. Using female BALB/c nude mice (4–6 weeks of age), HepG2 tumor model was established by subcutaneous injection of 2 × 10^6 HepG2 tumor cells (0.1 mL) into the right upper flanks. When the tumor volume reached 0.8~1.0 cm in diameter (2-3 weeks after inoculation), the tumor-bearing mice were used for SPECT imaging and biodistribution studies. All animal studies were approved by Clinical Center at the FMMU.
# Nude mice bearing human HepG2 hepatoma were randomly divided into 5 groups and injected with ~7.4 MBq of ^99mTc-NGR with or without excess unlabelled NGR peptide (20 mg/kg). After injection of the tracer, mice were sacrificed and dissected. The radioactivity in the HepG2 tumor, major organs, and muscle were collected and weighed wet with tubes (%ID/g). Mean uptake (%ID/g) for a group of animals was calculated with standard deviations. Values were expressed as mean ± SD (n = 5/group).
# HepG2 cells = test: Cell uptake study; type: cell-based, human; conditions: 37°C, ~370 kBq/well, gamma counter, n = 3, mean ± SD
# Protocol: HepG2 cells were seeded into 48-well plates at a density of 2 × 10^5 cells per well 24 h prior to the experiment. HepG2 cells were then incubated with ^99mTc-labeled NGR peptides (~370 kBq/well) at 37°C for 15, 30, 60, 120, and 240 min. After incubation, tumor cells were washed three times with ice cold PBS and harvested by trypsinization with 0.25% trypsin/0.02% EDTA (Hyclone, USA). Cell suspensions were collected and measured in a gamma counter (Zhida, Shannxi, China). Cell uptake data was presented as percentage of total input radioactivity added to the culture medium after decay correction. Experiments were performed twice with triplicate wells.
# [1] = In vitro stability in mouse serum (radio-TLC); type: in vitro ADME; conditions: 37°C, 12 h incubation, percentage of parent tracer by radio-TLC, read-out: ^99mTc-NGR peptide remained intact
# Protocol: (§1) The stability of ^99mTc-labeled NGR peptide in PBS and mouse serum at 37°C was studied at 1, 3, 6, and 12 h. Then the percentage of parent tracer was determined by radio-TLC (Table 1).
# [2] = In vitro stability in PBS (radio-TLC); type: physicochemical; conditions: PBS pH 7.4, 37°C, 12 h incubation, percentage of parent tracer by radio-TLC
# Protocol: as §1
# [3] = blood, iv, ~7.4 MBq i.v., read-out: Blood uptake
# [4] = heart, iv, ~7.4 MBq i.v., read-out: Heart uptake
# [5] = intestine, iv, ~7.4 MBq i.v., read-out: Intestine uptake
# [6] = iv, HepG2 tumor, ~7.4 MBq i.v., read-out: Tumor uptake
# [7] = kidney, iv, ~7.4 MBq i.v., read-out: Kidney uptake
# [8] = liver, iv, ~7.4 MBq i.v., read-out: Liver uptake
# [9] = lung, iv, ~7.4 MBq i.v., read-out: Lung uptake
# [10] = muscle, iv, ~7.4 MBq i.v., read-out: Muscle uptake
# [11] = spleen, iv, ~7.4 MBq i.v., read-out: Spleen uptake
# [12] = stomach, iv, ~7.4 MBq i.v., read-out: Stomach uptake
smiles,measurement,setting,value
"N=C(N)NCCC[C@@H]1NC(=O)CNC(=O)[C@H](CC(N)=O)NC(=O)[C@@H](NC(=O)CNC(=O)CNC(=O)[C@@H](N)Cc2ccc(O)cc2)CSSC[C@@H](C(=O)O)NC1=O [^99mTc-NGR, metal not drawn] (H-YGGCNGRC-OH; disulfide 4-8)",tissue uptake at 1 h,"Biodistribution studies; blood, iv, 1 h postinjection, ~7.4 MBq i.v., read-out: Blood uptake",3.82 ± 0.41 %ID/g
same,tissue uptake at 4 h,Biodistribution studies; [3],1.75 ± 0.39 %ID/g
same,tissue uptake at 8 h,Biodistribution studies; [3],0.98 ± 0.22 %ID/g
same,tissue uptake at 12 h,Biodistribution studies; [3],0.75 ± 0.31 %ID/g
same,tissue uptake at 1 h,"Biodistribution studies; blood, iv, Blocking (1 h), coinjection of unlabelled NGR 20 mg/kg, read-out: Blood uptake",2.56 ± 0.34 %ID/g
same,tissue uptake at 1 h,"Biodistribution studies; heart, iv, 1 h postinjection, ~7.4 MBq i.v., read-out: Heart uptake",3.74 ± 0.54 %ID/g
same,tissue uptake at 4 h,Biodistribution studies; [4],2.26 ± 0.33 %ID/g
same,tissue uptake at 8 h,Biodistribution studies; [4],1.15 ± 0.32 %ID/g
same,tissue uptake at 12 h,Biodistribution studies; [4],1.07 ± 0.25 %ID/g
same,tissue uptake at 1 h,"Biodistribution studies; heart, iv, Blocking (1 h), coinjection of unlabelled NGR 20 mg/kg, read-out: Heart uptake",2.73 ± 0.29 %ID/g
same,tissue uptake at 1 h,"Biodistribution studies; intestine, iv, 1 h postinjection, ~7.4 MBq i.v., read-out: Intestine uptake",2.65 ± 1.06 %ID/g
same,tissue uptake at 4 h,Biodistribution studies; [5],2.18 ± 0.96 %ID/g
same,tissue uptake at 8 h,Biodistribution studies; [5],1.93 ± 0.22 %ID/g
same,tissue uptake at 12 h,Biodistribution studies; [5],1.6 ± 0.27 %ID/g
same,tissue uptake at 1 h,"Biodistribution studies; intestine, iv, Blocking (1 h), coinjection of unlabelled NGR 20 mg/kg, read-out: Intestine uptake",2.4 ± 0.59 %ID/g
same,tissue uptake at 1 h,"Biodistribution studies; iv, HepG2 tumor, 1 h postinjection, ~7.4 MBq i.v., read-out: Tumor uptake",2.52 ± 0.83 %ID/g
same,tissue uptake at 4 h,Biodistribution studies; [6],3.03 ± 0.71 %ID/g
same,tissue uptake at 8 h,Biodistribution studies; [6],3.26 ± 0.63 %ID/g
same,tissue uptake at 12 h,Biodistribution studies; [6],2.81 ± 0.25 %ID/g
same,tissue uptake at 1 h,"Biodistribution studies; iv, HepG2 tumor, Blocking (1 h), coinjection of unlabelled NGR 20 mg/kg, read-out: Tumor uptake",1.65 ± 0.61 %ID/g
same,tissue uptake at 1 h,"Biodistribution studies; kidney, iv, 1 h postinjection, ~7.4 MBq i.v., read-out: Kidney uptake",7.93 ± 2.13 %ID/g
same,tissue uptake at 4 h,Biodistribution studies; [7],7.03 ± 0.95 %ID/g
same,tissue uptake at 8 h,Biodistribution studies; [7],6.21 ± 0.43 %ID/g
same,tissue uptake at 12 h,Biodistribution studies; [7],5.96 ± 0.41 %ID/g
same,tissue uptake at 1 h,"Biodistribution studies; kidney, Blocking (1 h), coinjection of unlabelled NGR 20 mg/kg, read-out: Kidney uptake",5.03 ± 0.97 %ID/g
same,tissue uptake at 1 h,"Biodistribution studies; liver, iv, 1 h postinjection, ~7.4 MBq i.v., read-out: Liver uptake",4.07 ± 0.76 %ID/g
same,tissue uptake at 4 h,Biodistribution studies; [8],3.85 ± 0.73 %ID/g
same,tissue uptake at 8 h,Biodistribution studies; [8],3.44 ± 0.52 %ID/g
same,tissue uptake at 12 h,Biodistribution studies; [8],3.26 ± 0.47 %ID/g
same,tissue uptake at 1 h,"Biodistribution studies; liver, Blocking (1 h), coinjection of unlabelled NGR 20 mg/kg, read-out: Liver uptake",3.27 ± 0.16 %ID/g
same,tissue uptake at 4 h,Biodistribution studies; [9],2.13 ± 0.44 %ID/g
same,tissue uptake at 8 h,Biodistribution studies; [9],1.86 ± 0.38 %ID/g
same,tissue uptake at 12 h,Biodistribution studies; [9],1.21 ± 0.31 %ID/g
same,tissue uptake at 1 h,"Biodistribution studies; lung, iv, Blocking (1 h), coinjection of unlabelled NGR 20 mg/kg, read-out: Lung uptake",2.04 ± 0.28 %ID/g
same,tissue uptake at 1 h,"Biodistribution studies; muscle, iv, 1 h postinjection, ~7.4 MBq i.v., read-out: Muscle uptake",0.53 ± 0.33 %ID/g
same,tissue uptake at 4 h,Biodistribution studies; [10],0.46 ± 0.11 %ID/g
same,tissue uptake at 8 h,Biodistribution studies; [10],0.43 ± 0.14 %ID/g
same,tissue uptake at 12 h,Biodistribution studies; [10],0.39 ± 0.22 %ID/g
same,tissue uptake at 1 h,"Biodistribution studies; muscle, iv, Blocking (1 h), coinjection of unlabelled NGR 20 mg/kg, read-out: Muscle uptake",0.48 ± 0.27 %ID/g
same,tissue uptake at 1 h,"Biodistribution studies; spleen, iv, 1 h postinjection, ~7.4 MBq i.v., read-out: Spleen uptake",2.37 ± 0.43 %ID/g
same,tissue uptake at 4 h,Biodistribution studies; [11],2.09 ± 0.6 %ID/g
same,tissue uptake at 8 h,Biodistribution studies; [11],1.88 ± 0.42 %ID/g
same,tissue uptake at 12 h,Biodistribution studies; [11],1.72 ± 0.37 %ID/g
same,tissue uptake at 1 h,"Biodistribution studies; spleen, Blocking (1 h), coinjection of unlabelled NGR 20 mg/kg, read-out: Spleen uptake",1.89 ± 0.22 %ID/g
same,tissue uptake at 1 h,"Biodistribution studies; stomach, iv, 1 h postinjection, ~7.4 MBq i.v., read-out: Stomach uptake",3.07 ± 0.56 %ID/g
same,tissue uptake at 4 h,Biodistribution studies; [12],2.2 ± 0.26 %ID/g
same,tissue uptake at 8 h,Biodistribution studies; [12],1.61 ± 0.39 %ID/g
same,tissue uptake at 12 h,Biodistribution studies; [12],1.56 ± 0.32 %ID/g
same,tissue uptake at 1 h,"Biodistribution studies; stomach, Blocking (1 h), coinjection of unlabelled NGR 20 mg/kg, read-out: Stomach uptake",3.41 ± 0.31 %ID/g
same,tissue to tissue ratio at 1 h,"Biodistribution studies; tumor/kidney, iv, 7.4 MBq, 1 h postinjection, read-out: Tumor-to-normal tissue uptake ratio T/K",0.32 ± 0.15
same,tissue to tissue ratio at 1 h,"Biodistribution studies; tumor/liver, iv, 7.4 MBq, 1 h postinjection, read-out: Tumor-to-normal tissue uptake ratio T/L",0.62 ± 0.33
same,tissue to tissue ratio at 1 h,"Biodistribution studies; tumor/muscle, iv, 7.4 MBq, 1 h postinjection, read-out: Tumor-to-normal tissue uptake ratio T/M",4.75 ± 0.91
same,tissue to tissue ratio at 8 h,"Biodistribution studies; tumor/muscle, iv, 7.4 MBq, 8 h (highest value), read-out: tumor/muscle (T/NT) value",7.58 ± 1.92
same,uptake in HepG2 cells (percentage of total input radioactivity),HepG2 cells; 15 min,about 0.49 ± 0.05%
same,uptake in HepG2 cells (percentage of total input radioactivity),HepG2 cells; 2 h (maximum),1.52 ± 0.13%
same,uptake in HepG2 cells (percentage of total input radioactivity),HepG2 cells; 4 h,About 1.35 ± 0.27%
same,remaining at 12 h,[1],~92%
same,^99mTc-NGR peptide remained intact,[2],~92%
